Measurements as given in patent publication US12194051B2, “5-azaindazole derivatives as adenosine receptor antagonists” (MERCK PATENT GMBH, priority 2018, dated 2025).

What was measured:
Assay type in all cases: cell-based
[1] = biological target: T1, endogenous human A2A receptor (Homo sapiens, UniProt P29274); assay: Human T cell assay, endogenous A2A receptor, cAMP quantification
T1 construct: The endogenous functional activity of the Gs-coupled human A2A receptor was measured in T cells; endogenous in cells; host or cells: human pan T cells isolated from PBMC of fresh whole blood
T1 sequence (P29274 whole entry): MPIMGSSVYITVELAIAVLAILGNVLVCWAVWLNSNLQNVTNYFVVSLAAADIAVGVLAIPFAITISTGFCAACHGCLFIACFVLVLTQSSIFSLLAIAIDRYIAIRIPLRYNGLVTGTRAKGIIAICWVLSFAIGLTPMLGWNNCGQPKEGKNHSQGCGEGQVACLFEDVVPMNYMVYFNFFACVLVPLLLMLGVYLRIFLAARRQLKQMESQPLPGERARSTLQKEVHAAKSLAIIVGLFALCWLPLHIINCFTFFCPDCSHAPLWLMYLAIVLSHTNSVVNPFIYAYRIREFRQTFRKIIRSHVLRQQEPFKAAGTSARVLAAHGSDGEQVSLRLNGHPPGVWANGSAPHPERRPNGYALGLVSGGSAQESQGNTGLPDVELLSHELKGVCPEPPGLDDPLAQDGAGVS
Description: The endogenous functional activity of the Gs-coupled human A2A receptor was measured in T cells, where this receptor is highly expressed. Determination of receptor activity was done by quantification of cAMP, which is a second messenger for adenosine receptors.
In short, human pan T cells were isolated from human PBMC (MACS Pan T Cell Isolation Kit, Miltenyi Biotec) that have been derived from fresh whole blood. The T cells were seeded in 384-well microtiter plates and treated with test compounds. […] Finally, HTRF reagents (cAMP Femto Kit, CisBio) were added to the wells, and after 1 h cellular cAMP levels were determined using the ENVISION (Perkin Elmer) plate reader.
The obtained raw data were normalized against the inhibitor control and the neutral control (DMSO) and the normalized data were fitted using Genedata Screener software.

mouse Pan T cells = assay: Mouse T cell IL-2 rescue from NECA inhibition (ELISA); conditions: 24 h
Excerpt: Adenosine (Ado) in tumor microenvironment can inhibit T cell activity by signaling through A2A receptors and suppress cytokine secretion by T cells. […] Potential A2A antagonists or A2A/A2B dual antagonists can rescue T cells from this inhibition. Herein, we describe the in vitro system we established using Pan T cells from mouse spleens to screen potential A2A antagonists or A2A/A2B dual antagonists for their activity. The method described involves the use of CD3/CD28 pre-coated beads to stimulate Pan T cells purified from mouse splenocytes, combined with the addition of A2A agonist along with potential A2A or A2A/A2B dual antagonists to evaluate potentiation of T cell cytokine production.
Briefly, mouse Pan T cells are purified from spleens of BALB/c mice using Pan T cell isolation kit Mouse II (MACS Miltenyi biotech Cat # Order no. 130-095-130) according to manufacturer's protocol. […] After 24 h incubation IL-2 levels in the supernatants are measured by ELISAs according to manufacturer's protocol (R&D systems Cat # DY402 (IL-2)). Once the concentrations are calculated, the difference of cytokine concentration of DMSO control and agonist alone control is calculated and the percentage of rescue by each concentration of antagonist is calculated by using Microsoft Excel. […]

Human T cell = Human T cell IL-2; conditions: human T cells
human A2B receptors = biological target: T2, human A2B receptors (Homo sapiens, UniProt P29275); assay: Inhibition of human A2B receptor in recombinant HEK293 cells, cAMP quantification (HTRF); conditions: read-out: A2B (Category)
T2 construct: expressed in transfected cells; host or cells: HEK293
T2 sequence (P29275 1-332): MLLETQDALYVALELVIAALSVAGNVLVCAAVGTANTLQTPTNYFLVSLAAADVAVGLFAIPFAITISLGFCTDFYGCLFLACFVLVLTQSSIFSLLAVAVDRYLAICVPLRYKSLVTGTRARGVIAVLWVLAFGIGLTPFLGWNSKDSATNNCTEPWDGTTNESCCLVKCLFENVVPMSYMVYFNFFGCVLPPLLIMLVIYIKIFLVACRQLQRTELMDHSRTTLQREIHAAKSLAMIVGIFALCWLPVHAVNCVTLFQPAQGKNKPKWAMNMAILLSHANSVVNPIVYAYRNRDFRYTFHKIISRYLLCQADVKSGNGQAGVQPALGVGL
Outline: (§1)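 cAMP accumulation, determined by HTRF after a 15 min incubation, served as the functional measure of receptor activity.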

human A2A receptors = biological target: T3, human A2A receptors (Homo sapiens, UniProt P29274); assay: Inhibition of human A2A receptor in recombinant HEK293 cells, cAMP quantification (HTRF); conditions: read-out: A2A (Category)
T3 construct: expressed in transfected cells; host or cells: HEK293
T3 sequence (P29274 whole entry): as the sequence (P29274 whole entry) above
Outline: as §1

O=C(c1cc2c(cn1)c(Nc1ccc(F)cc1)nn2CC(F)(F)F)N1CCCOCC1 [Compound 10, [3-(4-fluoroanilino)-1-(2,2,2-trifluoroethyl)pyrazolo[4,3-c]pyridin-6-yl]-(1,4-oxazepan-4-yl)methanone]
IC50 [1]: < 100 nM | IC50 (mouse Pan T cells): < 1000 nM | IC50 (Human T cell): < 100 nM | IC50 (human A2B receptors): < 100 nM | IC50 (human A2A receptors): < 100 nM

CC(C)(O)C[C@H]1CCCN1C(=O)c1cc2c(cn1)c(Nc1ccc(F)cn1)nn2CC(F)(F)F [Compound 125, [3-[(5-fluoro-2-pyridyl)amino]-1-(2,2,2-trifluoroethyl)pyrazolo[4,3-c]pyridin-6-yl]-[(2R)-2-(2-hydroxy-2-methyl-propyl)pyrrolidin-1-yl]methanone]
IC50 (human A2B receptors): < 1000 nM | IC50 (human A2A receptors): < 100 nM

O=C(c1cc2c(cn1)c(Nc1ccccn1)nn2CC(F)(F)F)N1[C@@H]2CC[C@H]1C[C@@H](O)C2 [Compound 127, (3-endo-hydroxy-8-azabicyclo[3.2.1]octan-8-yl)-[3-(2-pyridylamino)-1-(2,2,2-trifluoroethyl)pyrazolo[4,3-c]pyridin-6-yl]methanone]
IC50 (human A2B receptors): < 100 nM | IC50 (human A2A receptors): < 100 nM
